Results reported in the NIST ThermoML archive (doi:10.1016/j.fluid.2014.11.020).
± gives the expanded uncertainty stated by the source.

Assay: activity coefficient (dimensionless); of the first substance listed, at infinite dilution; xn = mol fraction of the nth substance listed
Conditions: Liquid, Chromatography, x1 = 0

Row | Structure (SMILES) | activity coefficient (323.15 K) | activity coefficient (333.15 K) | activity coefficient (343.15 K)
1 | ClCCl [dichloromethane] + CCCCCCCCn1cc[n+](COCCC)c1C.N#C[N-]C#N | 0.34 ± 0.03 | 0.37 ± 0.03 | 0.37 ± 0.03
2 | Cc1ccccc1C [1,2-dimethylbenzene] + CCCOC[n+]1ccn(Cc2ccccc2)c1.F[B-](F)(F)F | 4.3 ± 0.29 | 4.17 ± 0.28 | 4.22 ± 0.29
3 | CCCCCCCCC [nonane] + CCCOC[n+]1ccn(Cc2ccccc2)c1.N#C[N-]C#N | 110 ± 7.6 | 93.6 ± 6.4 | 76.2 ± 5.2
4 | CCC(=O)CC [pentan-3-one] + CCCOC[n+]1ccc(N(C)C)cc1.O=S(=O)([N-]S(=O)(=O)C(F)(F)F)C(F)(F)F | 0.72 ± 0.05 | 0.75 ± 0.05 | 0.76 ± 0.05
5 | CCc1ccccc1 [ethylbenzene] + CN(C)c1cc[n+](COCCCOC[n+]2ccc(N(C)C)cc2)cc1.O=S(=O)([N-]S(=O)(=O)C(F)(F)F)C(F)(F)F.O=S(=O)([N-]S(=O)(=O)C(F)(F)F)C(F)(F)F | 1.46 ± 0.1 | 1.49 ± 0.1 | 1.5 ± 0.1
6 | CCC(C)=O [butanone] + CCCCCCCCn1cc[n+](COCCCOC[n+]2ccn(CCCCCCCC)c2C)c1C.N#C[N-]C#N.N#C[N-]C#N | 0.56 ± 0.04 | 0.5 ± 0.04 | 0.46 ± 0.04
7 | CC(C)CO [2-methyl-1-propanol] + CCCOC[n+]1ccc(N(C)C)cc1.O=S(=O)([N-]S(=O)(=O)C(F)(F)F)C(F)(F)F | 2.03 ± 0.14 | 1.92 ± 0.13 | 1.73 ± 0.12
8 | CCCC(C)=O [pentan-2-one] + CCCOC[n+]1ccn(C)c1.N#C[N-]C#N | 2.24 ± 0.15 | 2.27 ± 0.15 | 2.32 ± 0.16
9 | CC(C)O [propan-2-ol] + CCCOC[n+]1ccn(C)c1.O=S(=O)([N-]S(=O)(=O)C(F)(F)F)C(F)(F)F | 1.9 ± 0.13 | 1.51 ± 0.1 | 1.39 ± 0.09
10 | Cc1ccccc1C [1,2-dimethylbenzene] + CCCCCCCCn1cc[n+](COCCC)c1C.O=S(=O)([N-]S(=O)(=O)C(F)(F)F)C(F)(F)F | 0.94 ± 0.06 | 0.94 ± 0.06 | 0.94 ± 0.06
11 | CCO [ethanol] + CCCOC[n+]1ccn(C)c1.F[B-](F)(F)F | 2.1 ± 0.14 | 1.9 ± 0.13 | 1.75 ± 0.12
12 | C1COCCO1 [1,4-dioxane] + CCCOC[n+]1ccn(C)c1.F[B-](F)(F)F | 1.39 ± 0.09 | 1.42 ± 0.09 | 1.46 ± 0.1
13 | Cc1ccccc1C [1,2-dimethylbenzene] + CCCOC[n+]1ccn(Cc2ccccc2)c1.N#C[N-]C#N | 3.05 ± 0.21 | 3.03 ± 0.21 | 3.01 ± 0.2
14 | Cc1ccccc1C [1,2-dimethylbenzene] + Cn1cc[n+](COCCCOC[n+]2ccn(C)c2)c1.O=S(=O)([N-]S(=O)(=O)C(F)(F)F)C(F)(F)F.O=S(=O)([N-]S(=O)(=O)C(F)(F)F)C(F)(F)F | 2.08 ± 0.14 | 2.1 ± 0.14 | 2.04 ± 0.14
15 | CCCO [propan-1-ol] + Cn1cc[n+](COCCCOC[n+]2ccn(C)c2)c1.N#C[N-]C#N.N#C[N-]C#N | 1.22 ± 0.08 | 1.17 ± 0.07 | 1.1 ± 0.07
16 | CCCCO [butan-1-ol] + Cn1cc[n+](COCCCOC[n+]2ccn(C)c2)c1.O=S(=O)([N-]S(=O)(=O)C(F)(F)F)C(F)(F)F.O=S(=O)([N-]S(=O)(=O)C(F)(F)F)C(F)(F)F | 2.02 ± 0.14 | 1.85 ± 0.12 | 1.64 ± 0.11
17 | ClC(Cl)Cl [trichloromethane] + CCCOC[n+]1ccn(C)c1.O=S(=O)([N-]S(=O)(=O)C(F)(F)F)C(F)(F)F | 1.03 ± 0.06 | 1.06 ± 0.07 | 1.06 ± 0.07
18 | C1CCCCC1 [cyclohexane] + CCCCCCCCn1cc[n+](COCCC)c1C.N#C[N-]C#N | 4.06 ± 0.28 | 3.85 ± 0.26 | 3.82 ± 0.26
19 | CCN(CC)CC [triethylamine] + Cn1cc[n+](COCCCOC[n+]2ccn(C)c2)c1.N#C[N-]C#N.N#C[N-]C#N | 54.6 ± 3.7 | 52.5 ± 3.6 | 50.5 ± 3.5
20 | ClC(Cl)Cl [trichloromethane] + Cn1cc[n+](COCCCOC[n+]2ccn(C)c2)c1.O=S(=O)([N-]S(=O)(=O)C(F)(F)F)C(F)(F)F.O=S(=O)([N-]S(=O)(=O)C(F)(F)F)C(F)(F)F | 0.87 ± 0.06 | 0.89 ± 0.06 | 0.71 ± 0.05
21 | CCCCCCCCCCCC [dodecane] + CN(C)c1cc[n+](COCCCOC[n+]2ccc(N(C)C)cc2)cc1.O=S(=O)([N-]S(=O)(=O)C(F)(F)F)C(F)(F)F.O=S(=O)([N-]S(=O)(=O)C(F)(F)F)C(F)(F)F | 156 ± 11 | 137 ± 9.4 | 124 ± 8.5
22 | CCCCO [butan-1-ol] + CCCOC[n+]1ccn(Cc2ccccc2)c1.N#C[N-]C#N | 0.93 ± 0.06 | 0.88 ± 0.06 | 0.82 ± 0.05
23 | CCCO [propan-1-ol] + CCCCCCCCn1cc[n+](COCCC)c1C.N#C[N-]C#N | 0.4 ± 0.03 | 0.4 ± 0.03 | 0.39 ± 0.03

Row | Structure (SMILES) | activity coefficient (323.15 K) | activity coefficient (333.15 K) | activity coefficient (343.15 K)
24 | CCCO [propan-1-ol] + CCCOC[n+]1ccn(C)c1.O=S(=O)([N-]S(=O)(=O)C(F)(F)F)C(F)(F)F | 1.86 ± 0.13 | 1.66 ± 0.11 | 1.5 ± 0.1
25 | CCN(CC)CC [triethylamine] + CCCOC[n+]1ccn(Cc2ccccc2)c1.N#C[N-]C#N | 9.22 ± 0.63 |  | 
26 | CCC[N+](=O)[O-] [1-nitropropane] + CCCOC[n+]1ccn(C)c1.F[B-](F)(F)F | 1.78 ± 0.12 | 1.78 ± 0.12 | 1.78 ± 0.12
27 | CC(C)O [propan-2-ol] + CCCOC[n+]1ccn(Cc2ccccc2)c1.N#C[N-]C#N | 0.85 ± 0.05 | 0.84 ± 0.05 | 0.82 ± 0.05
28 | CCCCCCCC [octane] + CCCOC[n+]1ccn(C)c1.O=S(=O)([N-]S(=O)(=O)C(F)(F)F)C(F)(F)F | 34.1 ± 2.3 | 29.7 ± 2 | 26.4 ± 1.8
29 | C1CCCCCC1 [cycloheptane] + CCCOC[n+]1ccn(C)c1.F[B-](F)(F)F | 153 ± 11 | 240 ± 16 | 245 ± 17
30 | ClC(Cl)Cl [trichloromethane] + CCCCCCCCn1cc[n+](COCCC)c1C.O=S(=O)([N-]S(=O)(=O)C(F)(F)F)C(F)(F)F | 0.51 ± 0.04 | 0.49 ± 0.04 | 0.53 ± 0.04
31 | Cc1cccc(C)c1 [1,3-dimethylbenzene] + CCCOC[n+]1ccn(Cc2ccccc2)c1.N#C[N-]C#N | 3.62 ± 0.25 | 3.52 ± 0.24 | 3.42 ± 0.23
32 | C=CCCCC [hex-1-ene] + CCCCCCCCn1cc[n+](COCCC)c1C.N#C[N-]C#N | 4.34 ± 0.3 | 4.37 ± 0.3 | 3.94 ± 0.27
33 | c1ccsc1 [thiophene] + CCCOC[n+]1ccc(N(C)C)cc1.O=S(=O)([N-]S(=O)(=O)C(F)(F)F)C(F)(F)F | 0.65 ± 0.04 | 0.69 ± 0.05 | 0.69 ± 0.05
34 | C=CCCCC [hex-1-ene] + Cn1cc[n+](COCCCOC[n+]2ccn(C)c2)c1.O=S(=O)([N-]S(=O)(=O)C(F)(F)F)C(F)(F)F.O=S(=O)([N-]S(=O)(=O)C(F)(F)F)C(F)(F)F | 15.1 ± 1 | 10.1 ± 0.69 | 
35 | CC(C)OC(C)C [diisopropyl ether] + CCCOC[n+]1ccn(Cc2ccccc2)c1.O=S(=O)([N-]S(=O)(=O)C(F)(F)F)C(F)(F)F | 3 ± 0.2 | 2.87 ± 0.2 | 2.74 ± 0.19
36 | c1ccsc1 [thiophene] + CCCOC[n+]1ccn(Cc2ccccc2)c1.N#C[N-]C#N | 0.98 ± 0.06 | 1.02 ± 0.06 | 1.04 ± 0.07
37 | c1ccsc1 [thiophene] + CCCOC[n+]1ccn(C)c1.O=S(=O)([N-]S(=O)(=O)C(F)(F)F)C(F)(F)F | 1.06 ± 0.07 | 1.05 ± 0.07 | 1.04 ± 0.07
38 | CCCCCCC [heptane] + CCCOC[n+]1ccc(N(C)C)cc1.O=S(=O)([N-]S(=O)(=O)C(F)(F)F)C(F)(F)F | 15.8 ± 1.1 | 14.8 ± 1 | 13.9 ± 0.95
39 | CCCCCCCCC [nonane] + CCCOC[n+]1ccn(Cc2ccccc2)c1.O=S(=O)([N-]S(=O)(=O)C(F)(F)F)C(F)(F)F | 23.3 ± 1.6 | 19.1 ± 1.3 | 17.5 ± 1.2
40 | CC(C)O [propan-2-ol] + CCCOC[n+]1ccc(N(C)C)cc1.O=S(=O)([N-]S(=O)(=O)C(F)(F)F)C(F)(F)F | 1.7 ± 0.11 | 1.62 ± 0.11 | 1.45 ± 0.1
41 | C#CCCCC [1-hexyne] + N#C[N-]C#N.N#C[N-]C#N.c1ccc(Cn2cc[n+](COCCCOC[n+]3ccn(Cc4ccccc4)c3)c2)cc1 | 14.1 ± 0.96 | 11.7 ± 0.8 | 
42 | C[N+](=O)[O-] [nitromethane] + CCCOC[n+]1ccn(C)c1.F[B-](F)(F)F | 0.65 ± 0.04 | 0.66 ± 0.05 | 0.67 ± 0.05
43 | C[N+](=O)[O-] [nitromethane] + CCCOC[n+]1ccn(C)c1.N#C[N-]C#N | 0.69 ± 0.05 | 0.7 ± 0.05 | 0.73 ± 0.05
44 | CCCC(C)=O [pentan-2-one] + CCCOC[n+]1ccn(C)c1.O=S(=O)([N-]S(=O)(=O)C(F)(F)F)C(F)(F)F | 0.72 ± 0.05 | 0.72 ± 0.05 | 0.73 ± 0.05
45 | CC1CCCCC1 [methylcyclohexane] + Cn1cc[n+](COCCCOC[n+]2ccn(C)c2)c1.O=S(=O)([N-]S(=O)(=O)C(F)(F)F)C(F)(F)F.O=S(=O)([N-]S(=O)(=O)C(F)(F)F)C(F)(F)F | 21 ± 1.4 | 18.3 ± 1.2 | 
46 | ClC(Cl)(Cl)Cl [tetrachloromethane] + CCCCCCCCn1cc[n+](COCCC)c1C.N#C[N-]C#N | 1.21 ± 0.08 | 1.23 ± 0.08 | 1.24 ± 0.08
